Values joined by “and” are separate entries in the source; they are usually repeats but may differ in a detail not shown here. Equal values may be shown once.
Test: Henry solubility constant Hcp at 298.15 K (mol/(m3 Pa))
[1] = reference: Murphy et al. (1983a)
[2] = reference: Souchon et al. (2004)
[3] = reference: Butler et al. (1935)
[4] = reference: Fenclová et al. (2010)
[5] = reference: Ondo and Dohnal (2007)
[6] = reference: Tsonopoulos and Wilson (1983)
[7] = reference: Chang and Criddle (1995)
[8] = reference: Schuhfried et al. (2015)
[9] = reference: Snider and Dawson (1985)
[10] = reference: Mabury and Crosby (1996)
[11] = reference: Drouillard et al. (1998)
[12] = reference: Amoore and Buttery (1978)

Clc1ccc(-c2cc(Cl)c(Cl)c(Cl)c2Cl)cc1Cl [2,3,3',4,4',5-hexachlorobiphenyl]
Henry solubility constant Hcp [1]: 0.011

CCCCCCC=O [heptanal]
Henry solubility constant Hcp (reference: Buttery et al. (1965)): 0.06 | Henry solubility constant Hcp [2]: 0.035

CCCC(C)O (stereo not given) [2-pentanol]
Henry solubility constant Hcp [3]: 0.67 | Henry solubility constant Hcp [4]: 0.71

CCC(O)CC [3-pentanol]
Henry solubility constant Hcp [4]: 0.64

Clc1cc(Cl)c(-c2c(Cl)ccc(Cl)c2Cl)cc1Cl [2,2',3,4',5',6-hexachlorobiphenyl]
Henry solubility constant Hcp [1]: 0.033

C1COCO1 [1,3-dioxolane]
Henry solubility constant Hcp [5]: 0.43

[Rn] [radon]
Henry solubility constant Hcp (reference: Lewis et al. (1987)): 9.4e-05 | Henry solubility constant Hcp (reference: Ramstedt (1911)): 0.0001

ClC1=C(Cl)[C@]2(Cl)[C@H]3[C@H](Cl)[C@@H](Cl)C[C@H]3[C@@]1(Cl)C2(Cl)Cl [trans-chlordane]
Henry solubility constant Hcp (reference: Jantunen and Bidleman (2006)): 0.034

FCF [difluoromethane]
Henry solubility constant Hcp (reference: Anderson (2011)): 0.00068 | Henry solubility constant Hcp (reference: Kutsuna (2017)): 0.00064 | Henry solubility constant Hcp (reference: Maaßen (1995)): 0.00069 | Henry solubility constant Hcp (reference: Miguel et al. (2000)): 0.0003 | Henry solubility constant Hcp (reference: Reichl (1995)): 0.00069

C1CCCCC1 [cyclohexane]
Henry solubility constant Hcp [6]: 5.4e-05 | Henry solubility constant Hcp (reference: Tucker et al. (1981)): 5.4e-05

FC(F)(F)C(Cl)Cl [2,2-dichloro-1,1,1-trifluoroethane]
Henry solubility constant Hcp [7]: 0.00032 | Henry solubility constant Hcp (reference: Kutsuna (2013)): 0.00023

C=CC(C)=O [3-buten-2-one]
Henry solubility constant Hcp (reference: Allen et al. (1998)): 0.21 | Henry solubility constant Hcp (reference: Iraci et al. (1999)): 0.4 | Henry solubility constant Hcp (reference: Ji and Evans (2007)): 0.26

COc1cc(CC(C)=O)ccc1O [guaiacylacetone]
Henry solubility constant Hcp (reference: McFall et al. (2020)): 12000

[O][N+](=O)[O-] [nitrogen trioxide]
Henry solubility constant Hcp (reference: Thomas et al. (1998)): 0.018

CC(C)S [2-propanethiol]
Henry solubility constant Hcp (reference: Haimi et al. (2006)): 0.0013 | Henry solubility constant Hcp (reference: Zin et al. (2016)): 0.0016

CCc1ncc(C)nc1CC [2,3-diethyl-5-methylpyrazine]
Henry solubility constant Hcp (reference: Roberts and Pollien (1997)): 0.81

CC1=CC[C@H](C(C)C)C=C1 [(R)-(−)-α-phellandrene]
Henry solubility constant Hcp [8]: 0.00034

FCC(F)(F)F [1,1,1,2-tetrafluoroethane]
Henry solubility constant Hcp [7]: 0.00019 | Henry solubility constant Hcp (reference: Maaßen (1995)): 0.00016 | Henry solubility constant Hcp (reference: Reichl (1995)): 0.00016 | Henry solubility constant Hcp (reference: Zheng et al. (1997)): 0.00016

CF [fluoromethane]
Henry solubility constant Hcp (reference: Glew and Moelwyn-Hughes (1953)): 0.00058 | Henry solubility constant Hcp (reference: Swain and Thornton (1962)): 0.00058

CC(C)CS [2-methyl-1-propanethiol]
Henry solubility constant Hcp (reference: Zin et al. (2016)): 0.001

CC(F)F [1,1-difluoroethane]
Henry solubility constant Hcp (reference: Maaßen (1995)): 0.0005 | Henry solubility constant Hcp (reference: Reichl (1995)): 0.00049 | Henry solubility constant Hcp (reference: Zheng et al. (1997)): 0.00049

O=C=C=C=O [carbon suboxide]
Henry solubility constant Hcp (reference: Keßel et al. (2017)): 0.011

CCO [ethanol]
Henry solubility constant Hcp (reference: Burnett (1963)): 2.1 | Henry solubility constant Hcp [3]: 1.9 | Henry solubility constant Hcp (reference: Gupta et al. (2000)): 1.8 | Henry solubility constant Hcp (reference: Harger et al. (1950)): 1.9 | Henry solubility constant Hcp (reference: Jones (1983)): 1.9 | Henry solubility constant Hcp (reference: Park et al. (1987)): 1.9 | Henry solubility constant Hcp (reference: Pividal et al. (1992)): 3.1 | Henry solubility constant Hcp (reference: Richon et al. (1985)): 2 | Henry solubility constant Hcp (reference: Rohrschneider (1973)): 2.3 | Henry solubility constant Hcp [9]: 1.9 | Henry solubility constant Hcp (reference: Straver and de Loos (2005)): 1.9 | Henry solubility constant Hcp (reference: Ueberfeld et al. (2001)): 1.1 | Henry solubility constant Hcp (reference: Vitenberg and Dobryakov (2008)): 1.8 | Henry solubility constant Hcp (reference: Willey et al. (2017)): 1.8

c1ccc(-c2ccccc2)cc1 [biphenyl]
Henry solubility constant Hcp (reference: Mackay et al. (1979)): 0.024

FC1(F)C(F)(F)C(F)(F)C1(F)F [octafluorocyclobutane]
Henry solubility constant Hcp (reference: Park et al. (1982)): 1.2e-06 | Henry solubility constant Hcp (reference: Scharlin and Battino (1994)): 1.3e-06 | Henry solubility constant Hcp (reference: Wen and Muccitelli (1979)): 1.2e-06

CCCS [1-propanethiol]
Henry solubility constant Hcp (reference: Coquelet and Richon (2005)): 0.0017 | Henry solubility constant Hcp (reference: Haimi et al. (2006)): 0.0018

CN=C=O [methyl isocyanate]
Henry solubility constant Hcp (reference: Roberts and Liu (2019)): 0.013

CC1=CC=C(C(C)C)CC1 [1-methyl-4-(1-methylethyl)-1,3-cyclohexadiene]
Henry solubility constant Hcp (reference: Copolovici and Niinemets (2005)): 0.00029 | Henry solubility constant Hcp [8]: 0.00038

Clc1ccc(Cl)c(-c2cc(Cl)ccc2Cl)c1 [2,2',5,5'-tetrachlorobiphenyl]
Henry solubility constant Hcp [1]: 0.045

Clc1ccc(-c2ccc(Cl)cc2)cc1 [4,4'-dichlorobiphenyl]
Henry solubility constant Hcp (reference: Charles and Destaillats (2005)): 0.035

CNC(=O)Oc1cccc2c1OC(C)(C)C2 [carbofuran]
Henry solubility constant Hcp [10]: > 99

O=NO [nitrous acid]
Henry solubility constant Hcp (reference: Becker et al. (1996)): 0.47 | Henry solubility constant Hcp (reference: Becker et al. (1998)): 0.47 | Henry solubility constant Hcp (reference: Komiyama and Inoue (1978)): 0.37 | Henry solubility constant Hcp (reference: Park and Lee (1988)): 0.48

CCc1cnccn1 [2-ethylpyrazine]
Henry solubility constant Hcp (reference: Buttery et al. (1971)): 4

ClCCCCCCCCCl [1,8-dichlorooctane]
Henry solubility constant Hcp (reference: Sarraute et al. (2006)): 0.0071

CCOC(=O)C(F)(F)F [trifluoroethanoic acid, ethyl ester]
Henry solubility constant Hcp (reference: Kutsuna and Kaneyasu (2021)): 0.00071 | Henry solubility constant Hcp (reference: Kutsuna et al. (2005)): 0.00089

FCCl [chlorofluoromethane]
Henry solubility constant Hcp (reference: Boggs and Buck (1958)): 0.0015

COC(C)=O [methyl ethanoate]
Henry solubility constant Hcp (reference: Arp and Schmidt (2004)): 0.066 | Henry solubility constant Hcp (reference: Butler and Ramchandani (1935)): 0.11 | Henry solubility constant Hcp (reference: Fenclová et al. (2014)): 0.081 | Henry solubility constant Hcp (reference: Ioffe et al. (1984)): 0.077 | Henry solubility constant Hcp (reference: Kieckbusch and King (1979b)): 0.077 | Henry solubility constant Hcp (reference: McKeown and Stowell (1927)): 0.087

CC1(C)C2CC3OC3(C)C1C2 (stereo not given) [2,7,7-trimethyl-3-oxatricyclo[4.1.1.0(2,4)]octane]
Henry solubility constant Hcp (reference: Fichan et al. (1999)): 0.023

Cc1cc(C)c(N)cc1C [2,4,5-trimethylbenzenamine]
Henry solubility constant Hcp (reference: Jayasinghe et al. (1992)): 3.9

CC(Cl)CCC(Cl)C(Cl)CCC(Cl)CCl (stereo not drawn) [pentachlorodecane isomers]
Henry solubility constant Hcp [11]: 0.2 and 0.38

CCC(C)CO (stereo not given) [2-methyl-1-butanol]
Henry solubility constant Hcp [3]: 0.7 | Henry solubility constant Hcp [4]: 0.78

C=CC=O [propenal]
Henry solubility constant Hcp [9]: 0.072

ClC=CCCl [1,3-dichloropropene]
Henry solubility constant Hcp (reference: Warner et al. (1980)): 0.0028

CCCCCCO [1-hexanol]
Henry solubility constant Hcp (reference: Gupta et al. (2000)): 0.39 | Henry solubility constant Hcp (reference: Lei et al. (2007)): 0.51 | Henry solubility constant Hcp (reference: Shunthirasingham et al. (2013)): 0.57 | Henry solubility constant Hcp [2]: 0.38

Brc1ccc(Br)cc1 [1,4-dibromobenzene]
Henry solubility constant Hcp (reference: Kuramochi et al. (2004)): 0.0094

CCCCCC [hexane]
Henry solubility constant Hcp (reference: Jönsson et al. (1982)): 5.9e-06 | Henry solubility constant Hcp (reference: Park et al. (1997)): 7.4e-06 | Henry solubility constant Hcp [6]: 6.7e-06

CN(C)c1nc(=O)n(C2CCCCC2)c(=O)n1C [hexazinone]
Henry solubility constant Hcp [10]: > 99

ClCC(Cl)CCCCCCC(Cl)CCl (stereo not given) [1,2,9,10-tetrachlorodecane]
Henry solubility constant Hcp [11]: 0.056

OCOO [hydroxymethyl hydroperoxide]
Henry solubility constant Hcp (reference: O’Sullivan et al. (1996)): 16000 | Henry solubility constant Hcp (reference: Staffelbach and Kok (1993)): 16000 | Henry solubility constant Hcp (reference: Zhou and Lee (1992)): 4700

CC(=O)C(C)C [3-methyl-2-butanone]
Henry solubility constant Hcp (reference: Hovorka et al. (2019)): 0.093

ClNCl [dichloramine]
Henry solubility constant Hcp (reference: Holzwarth et al. (1984)): 0.28

COCOC [dimethoxymethane]
Henry solubility constant Hcp [5]: 0.063

Clc1cc(Cl)c(-c2cc(Cl)c(Cl)cc2Cl)cc1Cl [2,2',4,4',5,5'-hexachlorobiphenyl]
Henry solubility constant Hcp [1]: 0.028

CC(C)COC(=O)C(C)C [2-methylpropyl 2-methylpropanoate]
Henry solubility constant Hcp [12]: 0.01

c1ccc2cc3ccccc3cc2c1 [anthracene]
Henry solubility constant Hcp (reference: Alaee et al. (1996)): 0.2 | Henry solubility constant Hcp (reference: Bamford et al. (1999b)): 0.15 | Henry solubility constant Hcp (reference: Reza and Trejo (2004)): 0.23 | Henry solubility constant Hcp (reference: Southworth (1979)): 0.15 | Henry solubility constant Hcp (reference: Webster et al. (1985)): 0.27

O=C(O)CBr [bromoethanoic acid]
Henry solubility constant Hcp (reference: Bowden et al. (1998a)): 1500

CC(C)CC(=O)O [3-methylbutanoic acid]
Henry solubility constant Hcp [12]: 12 | Henry solubility constant Hcp (reference: Khan and Brimblecombe (1992)): 12 | Henry solubility constant Hcp (reference: Khan et al. (1995)): 12 | Henry solubility constant Hcp (reference: Kim and Kim (2016)): 27 | Henry solubility constant Hcp (reference: von Hartungen et al. (2004)): 11

CCCN(CCC)C(=O)SCC [S-ethyl dipropylthiocarbamate]
Henry solubility constant Hcp (reference: Breiter et al. (1998)): 0.038 | Henry solubility constant Hcp (reference: Reyes-Pérez et al. (2008)): 0.56

Clc1cc(Cl)c(-c2c(Cl)cc(Cl)c(Cl)c2Cl)cc1Cl [2,2',3,4,4',5',6-heptachlorobiphenyl]
Henry solubility constant Hcp [1]: 0.016
